The test relates to MX-1 breast xenograft, nude mice, tumor weight T/C. The test can be described thus: NCI In Vivo Anticancer Drug Screen. Data for tumor model Human Mammary Carcinoma MX-1 Xenograft (intrarenal inoculation) in NU/NU Swiss (nude) mice. Particulars: endpoint: mean tumor weight change, higher = larger tumour. In short, it runs like this: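 Compound dosed to mice with transplantable tumor; vehicle group as control. Endpoint survival or tumour size, reported as T/C.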

Where [1] appears, read: dose: 150.0 mg/kg/injection, schedule: Q04DX003 (sc), vehicle: Klucel (hydroxypropylcellulose) (HPC).
The mark [2] stands for this setting: dose: 150.0 mg/kg/injection, schedule: Q04DX003 (sc), vehicle: suspension in saline.
Where [3] appears, read: dose: 300.0 mg/kg/injection, schedule: Q04DX003 (sc), vehicle: suspension in saline.
Where [4] appears, read: dose: 200.0 mg/kg/injection, schedule: Q04DX003 (sc), vehicle: water.
[5] abbreviates: dose: 400.0 mg/kg/injection, schedule: Q04DX003 (sc), vehicle: water.
[6] abbreviates: dose: 800.0 mg/kg/injection, schedule: Q04DX003 (sc), vehicle: water.

Where “and” joins values, the source holds several entries; their conditions need not be identical. Identical values can stand only once. Inconclusive results are not listed.

With `CC1=NN(c2cccc(S(=O)(=O)O)c2)C(=O)C1N=Nc1cc(Cl)cc(S(=O)(=O)O)c1O.CC1=NN(c2cccc(S(=O)(=O)O)c2)C(=O)C1N=Nc1cc(Cl)cc(S(=O)(=O)O)c1O.[Cr]` (centres undefined), the T/C (dose: 150.0 mg/kg/injection, schedule: Q04DX003 (ip), vehicle: saline) is 151 % of control; the T/C (dose: 300.0 mg/kg/injection, schedule: Q04DX003 (ip), vehicle: saline) is 94 % of control; the T/C (dose: 600.0 mg/kg/injection, schedule: Q04DX003 (ip), vehicle: saline) is 50 % of control.

As to `COC1=CC(=O)N(C(=O)C2CSC(C(CO)NC(=O)c3csc(/C=N/O)n3)=N2)C1` (centres undefined), the T/C is 79 % of control under setting [1]; 81 % of control (dose: 300.0 mg/kg/injection, schedule: Q04DX003 (sc), vehicle: Klucel (hydroxypropylcellulose) (HPC)); 95 % of control (dose: 600.0 mg/kg/injection, schedule: Q04DX003 (sc), vehicle: Klucel (hydroxypropylcellulose) (HPC)).

Consider `O=c1[nH]cnc2[nH]ncc12`, for which the T/C is 46 % of control under setting [2]; 44 % of control under setting [3]; 119 % of control (dose: 600.0 mg/kg/injection, schedule: Q04DX003 (sc), vehicle: suspension in saline); 112 % of control (dose: 1200.0 mg/kg/injection, schedule: Q04DX003 (sc), vehicle: suspension in saline).

As to `COc1c(C=O)c2c(c(OC)c1OC)-c1ccc(OC)c(=O)cc1[C@@H](NC(C)=O)CC2`, the T/C is, setting by setting: (dose: 18.75 mg/kg/injection, schedule: Q04DX003 (sc), vehicle: Klucel (hydroxypropylcellulose) (HPC)) 20 % of control; (dose: 37.5 mg/kg/injection, schedule: Q04DX003 (sc), vehicle: Klucel (hydroxypropylcellulose) (HPC)) 11 % of control.

With `O=[N+]([O-])c1c(O)c(CNCCCO)cc(CNCCCO)c1O`, the T/C by setting is: (dose: 37.5 mg/kg/injection, schedule: Q04DX003 (ip), vehicle: suspension in saline) 50 % of control; (dose: 75.0 mg/kg/injection, schedule: Q04DX003 (ip), vehicle: suspension in saline) 55 % of control.

For the compound `C/C=C1\C[C@@H]2C(OC)Nc3cc(O)c(OC)cc3C(=O)N2C1` (some centres undefined), the T/C (dose: 1.0 mg/kg/injection, schedule: Q04DX003 (sc), vehicle: saline) is 78 % of control; the T/C (dose: 2.0 mg/kg/injection, schedule: Q04DX003 (sc), vehicle: suspension in saline) is 23 % of control and 31 % of control; the T/C (dose: 4.0 mg/kg/injection, schedule: Q04DX003 (sc), vehicle: saline) was 7 % of control and 26 % of control; the T/C (dose: 4.0 mg/kg/injection, schedule: Q04DX003 (sc), vehicle: suspension in saline) is 1 % of control and 3 % of control; the T/C (dose: 8.0 mg/kg/injection, schedule: Q04DX003 (sc), vehicle: suspension in saline) was -71 % of control.

As for `Nc1ccc(C(OC(=O)c2cc3ccccc3c(Cc3c(O)c(C(=O)OC(c4ccc(N)cc4)(c4ccc(N)cc4)c4ccc(N)cc4)cc4ccccc34)c2O)(c2ccc(N)cc2)c2ccc(N)cc2)cc1`, the T/C is 97 % of control (dose: 72.0 mg/kg/injection, schedule: Q04DX003 (sc), vehicle: saline with Tween-80); 104 % of control (dose: 144.0 mg/kg/injection, schedule: Q04DX003 (sc), vehicle: saline with Tween-80); 87 % of control (dose: 288.0 mg/kg/injection, schedule: Q04DX003 (sc), vehicle: saline with Tween-80).

As for `Nc1ncnc2c(C3OC(CO)C(O)C3O)[nH]nc12` (centres undefined), the T/C was -100 % of control (dose: 75.0 mg/kg/injection, schedule: Q04DX003 (sc), vehicle: Klucel (hydroxypropylcellulose) (HPC)); 5 % of control (dose: 75.0 mg/kg/injection, schedule: Q04DX003 (sc), vehicle: suspension in saline); -100 % of control under setting [1]; 5 % of control under setting [2]; -79 % of control under setting [3].

For `CSC1SCC2C(=O)N(C)C(C(C)C)C(=O)OCC(NC(=O)c3cnc4ccccc4n3)C(=O)NC(C)C(=O)N(C)C1C(=O)N(C)C(C(C)C)C(=O)OCC(NC(=O)c1cnc3ccccc3n1)C(=O)NC(C)C(=O)N2C` (centres undefined), the T/C is 109 % of control (dose: 60.0 micrograms/kg/injection, schedule: Q01DX010 (sc), vehicle: saline); 87 % of control (dose: 120.0 micrograms/kg/injection, schedule: Q01DX010 (sc), vehicle: saline); 40 % of control (dose: 240.0 micrograms/kg/injection, schedule: Q01DX010 (sc), vehicle: saline).

Regarding `COCC1OC2OC3C(COC)OC(OC4C(COC)OC(OC5C(COC)OC(OC6C(COC)OC(OC7C(COC)OC(OC8C(COC)OC(OC1C(O)C2O)C(O)C8O)C(O)C7O)C(O)C6O)C(O)C5O)C(O)C4O)C(O)C3O` (centres undefined) (tested in a mixture with another compound), the T/C is 82 % of control (dose: 100.0 mg/kg/injection, schedule: Q04DX003 (sc), vehicle: Klucel (hydroxypropylcellulose) (HPC)); 96 % of control (dose: 200.0 mg/kg/injection, schedule: Q04DX003 (sc), vehicle: Klucel (hydroxypropylcellulose) (HPC)); 86 % of control (dose: 400.0 mg/kg/injection, schedule: Q04DX003 (sc), vehicle: Klucel (hydroxypropylcellulose) (HPC)); 76 % of control (dose: 800.0 mg/kg/injection, schedule: Q04DX003 (sc), vehicle: Klucel (hydroxypropylcellulose) (HPC)).

Take `COc1cc2c3c(cccc3c1)C(=O)N(CCN(C)C)C2=O`: the T/C (dose: 300.0 mg/kg/injection, schedule: Q04DX003 (sc), vehicle: saline with Tween-80) was 100 % of control and the T/C (dose: 600.0 mg/kg/injection, schedule: Q04DX003 (sc), vehicle: saline with Tween-80) is 103 % of control.

Take `CCOC(C)C(/C=N/NC(N)=S)=NNC(N)=S` (centres undefined): the T/C runs as follows: (dose: 100.0 mg/kg/injection, schedule: Q01DX010 (sc), vehicle: saline with Tween-80) 167 % of control; (dose: 200.0 mg/kg/injection, schedule: Q01DX010 (sc), vehicle: saline with Tween-80) 123 % of control; (dose: 800.0 mg/kg/injection, schedule: Q01DX010 (sc), vehicle: saline with Tween-80) 96 % of control.

On to `Nc1n[n+](-c2ccc(Cl)cc2)no1`, for which the T/C is, setting by setting: (dose: 25.0 mg/kg/injection, schedule: Q04DX003 (sc), vehicle: water) 93 % of control; (dose: 50.0 mg/kg/injection, schedule: Q04DX003 (sc), vehicle: water) 102 % of control.

As to `O=C(NO)c1ccc(O)c(O)c1`, the T/C is 26 % of control (dose: 200.0 mg/kg/injection, schedule: Q04DX003 (sc), vehicle: other); 104 % of control under setting [4]; 60 % of control (dose: 400.0 mg/kg/injection, schedule: Q04DX003 (sc), vehicle: other); 87 % of control under setting [5]; 18 % of control (dose: 800.0 mg/kg/injection, schedule: Q04DX003 (sc), vehicle: other); 78 % of control under setting [6]. Also, for the setting “dose: 1200.0 mg/kg/injection, schedule: Q04DX003 (sc), vehicle: distilled water + Tween-80”, the T/C is 77 % of control.

`Nc1nc(N)c2c(ccc3c2ccn3Cc2cccc([N+](=O)[O-])c2)n1`: the T/C is 98 % of control (dose: 37.5 mg/kg/injection, schedule: Q04DX003 (sc), vehicle: saline with Tween-80) and 94 % of control (dose: 75.0 mg/kg/injection, schedule: Q04DX003 (sc), vehicle: saline with Tween-80).

Regarding `C[CH2][Ge]1([CH2]C)[CH2]CC2(CCN(CCCN(C)C)C2)C[CH2]1`, the T/C was 72 % of control (dose: 12.5 mg/kg/injection, schedule: Q04DX003 (sc), vehicle: saline); 92 % of control (dose: 25.0 mg/kg/injection, schedule: Q04DX003 (sc), vehicle: saline); 72 % of control (dose: 50.0 mg/kg/injection, schedule: Q04DX003 (sc), vehicle: saline); 85 % of control (dose: 100.0 mg/kg/injection, schedule: Q04DX003 (sc), vehicle: saline).

Regarding `Nc1cc(Cl)c2[nH]cnc2n1`, the T/C by setting is: under setting [4], 47 % of control; under setting [5], 42 % of control; under setting [6], 55 % of control.

As to `Nc1n[n+](-c2ccccc2)no1`, the T/C is 70 % of control (dose: 18.75 mg/kg/injection, schedule: Q04DX003 (sc), vehicle: water); 94 % of control (dose: 37.5 mg/kg/injection, schedule: Q04DX003 (sc), vehicle: water); 59 % of control (dose: 75.0 mg/kg/injection, schedule: Q04DX003 (sc), vehicle: water).

With `C[C@@]1(CO)[C@H](O)CC[C@@]2(C)[C@H]1CC[C@H]1C[C@@H]3C[C@@]12CC[C@@]3(O)COC(=O)CN`, the T/C is, setting by setting: (dose: 125.0 micrograms/kg/injection, schedule: Q04DX003 (sc), vehicle: saline + alcohol) 102 % of control; (dose: 250.0 micrograms/kg/injection, schedule: Q04DX003 (sc), vehicle: saline + alcohol) 34 % of control; (dose: 500.0 micrograms/kg/injection, schedule: Q04DX003 (sc), vehicle: saline + alcohol) 55 % of control; (dose: 1000.0 micrograms/kg/injection, schedule: Q04DX003 (sc), vehicle: saline + alcohol) 70 % of control.

Source of the values: PubChem BioAssay AID296 (DTP/NCI, 2004).
